Assay [1] addresses T1, Cyclin-dependent kinase 8 (Homo sapiens, UniProt P49336). The assay is described as follows: Inhibition of CDK8 (unknown origin) by competitive kinase binding based Lantha-screen Eu kinase binding assay.
Assay [2] concerns the target T2, Serine/threonine-protein kinase Nek1 (Homo sapiens, UniProt Q96PY6).
T2 sequence (Q96PY6 whole entry): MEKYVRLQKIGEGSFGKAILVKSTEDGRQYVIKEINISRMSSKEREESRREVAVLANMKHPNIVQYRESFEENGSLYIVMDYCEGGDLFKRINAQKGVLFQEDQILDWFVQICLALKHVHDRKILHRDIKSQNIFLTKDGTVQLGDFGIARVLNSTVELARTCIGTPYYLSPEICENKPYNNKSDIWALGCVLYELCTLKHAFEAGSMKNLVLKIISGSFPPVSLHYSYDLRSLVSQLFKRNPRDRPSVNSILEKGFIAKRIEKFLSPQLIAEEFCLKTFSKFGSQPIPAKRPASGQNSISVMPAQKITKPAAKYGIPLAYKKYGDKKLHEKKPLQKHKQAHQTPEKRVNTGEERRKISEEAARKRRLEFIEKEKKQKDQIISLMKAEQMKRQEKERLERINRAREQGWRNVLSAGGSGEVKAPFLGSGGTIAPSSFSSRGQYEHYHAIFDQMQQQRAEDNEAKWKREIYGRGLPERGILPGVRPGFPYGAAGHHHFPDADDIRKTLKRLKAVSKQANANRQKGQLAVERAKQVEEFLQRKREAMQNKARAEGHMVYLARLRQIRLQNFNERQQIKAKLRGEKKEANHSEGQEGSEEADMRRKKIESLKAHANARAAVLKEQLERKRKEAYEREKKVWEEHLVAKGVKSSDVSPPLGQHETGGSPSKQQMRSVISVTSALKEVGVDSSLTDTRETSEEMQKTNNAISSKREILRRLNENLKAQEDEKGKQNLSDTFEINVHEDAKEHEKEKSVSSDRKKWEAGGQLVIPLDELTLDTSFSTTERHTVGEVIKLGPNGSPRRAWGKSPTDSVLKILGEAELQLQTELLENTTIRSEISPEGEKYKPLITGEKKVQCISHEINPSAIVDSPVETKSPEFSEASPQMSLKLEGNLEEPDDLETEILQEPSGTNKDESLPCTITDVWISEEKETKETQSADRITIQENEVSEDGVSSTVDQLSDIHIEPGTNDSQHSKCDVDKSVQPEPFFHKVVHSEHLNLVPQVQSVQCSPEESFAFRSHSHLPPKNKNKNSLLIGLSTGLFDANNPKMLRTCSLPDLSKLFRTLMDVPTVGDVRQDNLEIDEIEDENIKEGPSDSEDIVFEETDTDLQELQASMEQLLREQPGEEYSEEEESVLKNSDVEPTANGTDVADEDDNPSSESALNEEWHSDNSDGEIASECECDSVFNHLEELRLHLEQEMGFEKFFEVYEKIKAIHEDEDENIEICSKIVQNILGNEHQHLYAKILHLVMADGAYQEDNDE
The assay is described as follows: Inhibition of NEK1 (unknown origin).

Assay [3] concerns the target T1, Cyclin-dependent kinase 8. Description: Inhibition of CDK8 in human HepG2 cells assessed as reduction in IFNgamma-induced STATl S727 phosphorylation incubated for 18 hrs by Western blot analysis. The class given is cell-based.

T1 sequence (P49336 whole entry): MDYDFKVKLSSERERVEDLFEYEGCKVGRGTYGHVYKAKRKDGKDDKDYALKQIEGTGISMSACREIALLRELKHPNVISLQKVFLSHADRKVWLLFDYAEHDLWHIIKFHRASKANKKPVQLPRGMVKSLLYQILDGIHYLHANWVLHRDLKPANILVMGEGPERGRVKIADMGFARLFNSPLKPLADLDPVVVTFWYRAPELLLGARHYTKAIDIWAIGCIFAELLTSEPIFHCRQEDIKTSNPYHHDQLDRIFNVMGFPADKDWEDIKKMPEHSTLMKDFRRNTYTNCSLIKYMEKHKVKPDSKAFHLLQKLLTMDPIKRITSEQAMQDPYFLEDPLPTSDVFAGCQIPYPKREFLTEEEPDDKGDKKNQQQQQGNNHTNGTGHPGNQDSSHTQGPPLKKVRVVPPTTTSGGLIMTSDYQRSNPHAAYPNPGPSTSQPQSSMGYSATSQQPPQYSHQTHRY

`CN(C)[C@H]1CC[C@@]2(C)C(=CC[C@H]3[C@@H]4CC[C@H](c5ccc6ccncc6c5)[C@@]4(C)CC[C@@H]32)C1`: the figures for the concentration for half-maximal inhibition (IC50) in assay [1] and in assay [2] were not above 100 nM and more than 10000 nM, respectively. Further, the inhibition result in assay [3] is “Dose-dependent effect”.
Regarding `CN[C@H]1CC[C@@]2(C)[C@@H](CC[C@@H]3[C@@H]2CC[C@]2(C)[C@@H](c4ccc5ccncc5c4)CC[C@@H]32)C1`, in assay [1], the IC50 amounted to 701 nM.
With `CN(C)[C@@H]1CC[C@@]2(C)[C@@H](CC[C@@H]3[C@@H]2CC[C@]2(C)C(c4ccc5ccncc5c4)=CC[C@@H]32)C1`, the IC50 in assay [1] came to 201 nM.
Regarding `CN(C)[C@H]1CC[C@@]2(C)[C@@H](CC[C@@H]3[C@@H]2CC[C@]2(C)C(c4ccc5ccncc5c4)=CC[C@@H]32)C1`, in assay [1], the IC50 stood at 101 nM.
Still for that read-out and setting: the same measure for `CN(C)[C@H]1CC[C@@]2(C)[C@@H](CC[C@@H]3[C@@H]2CC[C@]2(C)[C@@H](c4ccc5ccncc5c4)CC[C@@H]32)C1`: not above 100 nM; for `C[C@]12CC[C@H](O)CC1=CC[C@@H]1[C@@H]2CC[C@]2(C)C(c3ccc4cnccc4c3)=CC[C@@H]12`: not below 6000 nM; for `C[C@]12CC[C@H](O)CC1=CC[C@@H]1[C@@H]2CC[C@]2(C)C(c3ccc4[nH]ncc4c3)=CC[C@@H]12`: not below 6000 nM.
As for `C[C@]12CC[C@H](O)CC1=CC[C@@H]1[C@@H]2CC[C@]2(C)C(c3ccc4cn[nH]c4c3)=CC[C@@H]12`, the IC50 in assay [1] was not below 6000 nM.
The same measure, in the same setting: the same measure for `C[C@]12CC[C@H](O)CC1=CC[C@@H]1[C@@H]2CC[C@]2(C)C(c3ccc4ccncc4c3)=CC[C@@H]12`: 101 nM.
Same read-out and setting: the result for `C[C@]12CC[C@H](O)C[C@@H]1CC[C@@H]1[C@@H]2CC[C@]2(C)C(c3ccc4ccncc4c3)=CC[C@@H]12` reads 701 nM; that for `C[C@]12CC[C@H]3[C@@H](CC=C4C[C@@H](O)CC[C@@]43C)[C@@H]1CC[C@@H]2c1ccc2cnccc2c1`, 2000 nM; that for `C[C@]12CC[C@H](O)CC1=CC[C@@H]1[C@@H]2CC[C@]2(C)C(c3ccc4nc(N)ncc4c3)=CC[C@@H]12`, 2000 nM.
Still for that read-out and setting: the result for `C[C@]12CC[C@H]3[C@@H](CC=C4C[C@@H](O)CC[C@@]43C)[C@@H]1CC[C@@H]2c1ccc2[nH]ncc2c1` reads not below 6000 nM; that for `C[C@]12CC[C@H]3[C@@H](CC=C4C[C@@H](O)CC[C@@]43C)[C@@H]1CC[C@@H]2c1ccc2c(N)n[nH]c2c1`, 301 nM; that for `C[C@]12CC[C@H]3[C@@H](CC=C4C[C@@H](O)CC[C@@]43C)[C@@H]1CC[C@@H]2c1ccc2cn[nH]c2c1`, not below 6000 nM.
`C[C@]12CC[C@H](n3ccnn3)C[C@@H]1CC[C@@H]1[C@@H]2CC[C@]2(C)[C@@H](c3ccc4ccncc4c3)CC[C@@H]12` gave a concentration for half-maximal inhibition (IC50) in assay [1] not above 100 nM.
The same measure, in the same setting: the result for `CC(=O)N(C)[C@H]1CC[C@@]2(C)[C@@H](CC[C@@H]3[C@@H]2CC[C@]2(C)[C@@H](c4ccc5ccncc5c4)CC[C@@H]32)C1` reads not above 100 nM; that for `C[C@]12CC[C@H]3[C@@H](CC=C4C[C@@H](O)CC[C@@]43C)[C@@H]1CC[C@@H]2c1ccc2nc(N)ncc2c1`, 101 nM; that for `C[C@]12CC[C@H](O)C[C@@H]1CC[C@@H]1[C@@H]2CC[C@]2(C)[C@@H](c3ccc4ccncc4c3)CC[C@@H]12`, 201 nM.
Still for that read-out and setting: the same measure for `C[C@]12CC[C@H](O)CC1=CC[C@@H]1[C@@H]2CC[C@]2(C)C(c3ccc4c(N)n[nH]c4c3)=CC[C@@H]12`: 701 nM; for `CN(C)[C@@H]1CC[C@@]2(C)[C@@H](CC[C@@H]3[C@@H]2CC[C@]2(C)[C@@H](c4ccc5ccncc5c4)CC[C@@H]32)C1`: not above 100 nM.
As to `C[C@]12CC[C@H](O)CC1=CC[C@@H]1[C@@H]2CC[C@]2(C)C(c3ccc4cnncc4c3)=CC[C@@H]12`, the IC50 in assay [1] is not below 6000 nM.
Consider `C[C@]12CC[C@H]3[C@@H](CC=C4C[C@@H](O)CC[C@@]43C)[C@@H]1CC[C@@H]2c1ccc2ccncc2c1`, for which the IC50 in assay [1] was not above 100 nM.
Still for that read-out and setting: the result for `C[C@]12CC[C@H](N3CCOCC3)C[C@@H]1CC[C@@H]1[C@@H]2CC[C@]2(C)[C@@H](c3ccc4ccncc4c3)CC[C@@H]12` reads 101 nM; that for `C[C@]12CC[C@H]3[C@@H](CC=C4C[C@@H](O)CC[C@@]43C)[C@@H]1CC[C@@H]2c1ccc2cnncc2c1`, not below 6000 nM.

The values are drawn from ChEMBL document CHEMBL4742401, “Cyclin-dependent kinase inhibitors and methods of use” (2019).
